Reference: US20050176655A1, “Novel macrolide derivatives havaing effect of potentiating antifungal activity” (priority 2002, published 2005)

Tests used:
Assay in all cases: Paper disk method, enhancing action for activities of azole antifungal agents
Assay type in all cases: cell-based
[1] = tested on: fluconazole resistant Candida albicans ATCC 64550; details: 24 hours; for Inhibition activity (inhibition ring mm) C. albicans ATCC 64550 GYF / Transparency of the inhibition ring C. albicans ATCC 64550 GYF: fluconazole 30 μg/ml; for Inhibition activity (inhibition ring mm) C. albicans ATCC 64550 GYM / Transparency of the inhibition ring C. albicans ATCC 64550 GYM: miconazole 0.15 μg/ml
Summary of the method: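 Paper disk assay on GY agar (pH 6.0) seeded with Waksman-broth-grown C. albicans ATCC 64550 (0.1% inoculum). Medium was supplemented with sub-growth-inhibitory miconazole 0.15 μg/ml or fluconazole 30 μg/ml. After 24 h, inhibition-zone diameter was measured in mm and transparency graded A–E (A most transparent, E opaque).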

[2] = tested on: Aspergillus niger ATCC 6275; details: 48 hours; for Inhibition activity (inhibition ring mm) A. niger ATCC 6275 GY / Transparency of the inhibition ring A. niger ATCC 6275 GY: GY medium (control, no azole); for Inhibition activity (inhibition ring mm) A. niger ATCC 6275 GYF / Transparency of the inhibition ring A. niger ATCC 6275 GYF: fluconazole 10 μg/ml; for Inhibition activity (inhibition ring mm) A. niger ATCC 6275 GYM / Transparency of the inhibition ring A. niger ATCC 6275 GYM: miconazole 0.1 μg/ml
Summary of the method: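 Paper-disk assay on A. niger ATCC 6275 spores (0.2%) seeded on GY agar pH 6.0. After 48 h, inhibition-zone diameter recorded in mm and transparency graded A (transparent) to E (opaque).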

[3] = tested on: Candida albicans ATCC 64548; details: 24 hours; for Inhibition activity (inhibition ring mm) C. albicans ATCC 64548 GYF / Transparency of the inhibition ring C. albicans ATCC 64548 GYF: fluconazole 0.5 μg/ml; for Inhibition activity (inhibition ring mm) C. albicans ATCC 64548 GYM / Transparency of the inhibition ring C. albicans ATCC 64548 GYM: miconazole 0.03 μg/ml
Summary of the method: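 GY agar (pH 6.0) seeded with C. albicans ATCC 64548 precultured in Waksman broth at 27° C for 40 hours, supplemented with sub-growth-inhibitory miconazole 0.03 μg/ml or fluconazole 0.5 μg/ml. Paper disk method; inhibition-zone diameter (mm) read after 24 hours, transparency graded A–E.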

CCCCCC(=O)OC1C(C)OC(OC2C(C)C(=O)OC(C(C)(O)C(CC)OC(=O)CCCCC)C(C)C3=C(C)CC(C)(O3)C(OC3OC(C)CC(N(C)CC)C3O)C2C)CC1(C)OC (stereo not shown) [Compound 853, 4″,13-Di-O-hexanoyl-de(3′-N-methyl)-N-ethyl-8,9-Anhydro-pseudoerythromycin A 6,9-hemiketal]
Inhibition activity (inhibition ring mm) C. albicans ATCC 64550 GYF ([1]; 10 μg/8 mm disk): 11 mm | Transparency of the inhibition ring C. albicans ATCC 64550 GYF ([1]; 10 μg/8 mm disk): D (Growth of test organism was inhibited 35% or more and 55% or less.) | Inhibition activity (inhibition ring mm) C. albicans ATCC 64550 GYF ([1]; 50 μg/8 mm disk): 14 mm | Transparency of the inhibition ring C. albicans ATCC 64550 GYF ([1]; 50 μg/8 mm disk): A (Growth of test organism was inhibited 95% or more.) | Inhibition activity (inhibition ring mm) C. albicans ATCC 64550 GYM ([1]; 50 μg/8 mm disk): 15 mm | Transparency of the inhibition ring C. albicans ATCC 64550 GYM ([1]; 50 μg/8 mm disk): A (Growth of test organism was inhibited 95% or more.) | Inhibition activity (inhibition ring mm) C. albicans ATCC 64550 GYF ([1]; 100 μg/8 mm disk): 15 mm | Transparency of the inhibition ring C. albicans ATCC 64550 GYF ([1]; 100 μg/8 mm disk): A (Growth of test organism was inhibited 95% or more.) | Inhibition activity (inhibition ring mm) C. albicans ATCC 64550 GYM ([1]; 100 μg/8 mm disk): 16 mm | Transparency of the inhibition ring C. albicans ATCC 64550 GYM ([1]; 100 μg/8 mm disk): A (Growth of test organism was inhibited 95% or more.) | Inhibition activity (inhibition ring mm) A. niger ATCC 6275 GY ([2]; 10 μg/8 mm disk): 10 mm | Transparency of the inhibition ring A. niger ATCC 6275 GY ([2]; 10 μg/8 mm disk): E (Growth of test organism was inhibited 35% or less.) | Inhibition activity (inhibition ring mm) A. niger ATCC 6275 GYF ([2]; 10 μg/8 mm disk): 9 mm | Transparency of the inhibition ring A. niger ATCC 6275 GYF ([2]; 10 μg/8 mm disk): E (Growth of test organism was inhibited 35% or less.) | Inhibition activity (inhibition ring mm) A. niger ATCC 6275 GYM ([2]; 10 μg/8 mm disk): 10 mm | Transparency of the inhibition ring A. niger ATCC 6275 GYM ([2]; 10 μg/8 mm disk): E (Growth of test organism was inhibited 35% or less.) | Inhibition activity (inhibition ring mm) A. niger ATCC 6275 GY ([2]; 50 μg/8 mm disk): 12 mm | Transparency of the inhibition ring A. niger ATCC 6275 GY ([2]; 50 μg/8 mm disk): D (Growth of test organism was inhibited 35% or more and 55% or less.) | Inhibition activity (inhibition ring mm) A. niger ATCC 6275 GYF ([2]; 50 μg/8 mm disk): 13 mm | Transparency of the inhibition ring A. niger ATCC 6275 GYF ([2]; 50 μg/8 mm disk): B (Growth of test organism was inhibited 75% of more and 95% or less.) | Inhibition activity (inhibition ring mm) A. niger ATCC 6275 GYM ([2]; 50 μg/8 mm disk): 15 mm | Transparency of the inhibition ring A. niger ATCC 6275 GYM ([2]; 50 μg/8 mm disk): B (Growth of test organism was inhibited 75% of more and 95% or less.) | Inhibition activity (inhibition ring mm) A. niger ATCC 6275 GY ([2]; 100 μg/8 mm disk): 13 mm | Transparency of the inhibition ring A. niger ATCC 6275 GY ([2]; 100 μg/8 mm disk): D (Growth of test organism was inhibited 35% or more and 55% or less.) | Inhibition activity (inhibition ring mm) A. niger ATCC 6275 GYF ([2]; 100 μg/8 mm disk): 14 mm | Transparency of the inhibition ring A. niger ATCC 6275 GYF ([2]; 100 μg/8 mm disk): B (Growth of test organism was inhibited 75% of more and 95% or less.) | Inhibition activity (inhibition ring mm) A. niger ATCC 6275 GYM ([2]; 100 μg/8 mm disk): 16 mm | Transparency of the inhibition ring A. niger ATCC 6275 GYM ([2]; 100 μg/8 mm disk): B (Growth of test organism was inhibited 75% of more and 95% or less.) | Inhibition activity (inhibition ring mm) C. albicans ATCC 64548 GYF ([3]; 10 μg/8 mm disk): 9 mm | Transparency of the inhibition ring C. albicans ATCC 64548 GYF ([3]; 10 μg/8 mm disk): E (Growth of test organism was inhibited 35% or less.) | Inhibition activity (inhibition ring mm) C. albicans ATCC 64548 GYM ([3]; 10 μg/8 mm disk): 10 mm | Transparency of the inhibition ring C. albicans ATCC 64548 GYM ([3]; 10 μg/8 mm disk): B (Growth of test organism was inhibited 75% of more and 95% or less.) | Inhibition activity (inhibition ring mm) C. albicans ATCC 64548 GYF ([3]; 50 μg/8 mm disk): 14 mm | Transparency of the inhibition ring C. albicans ATCC 64548 GYF ([3]; 50 μg/8 mm disk): B (Growth of test organism was inhibited 75% of more and 95% or less.) | Inhibition activity (inhibition ring mm) C. albicans ATCC 64548 GYM ([3]; 50 μg/8 mm disk): 14 mm | Transparency of the inhibition ring C. albicans ATCC 64548 GYM ([3]; 50 μg/8 mm disk): A (Growth of test organism was inhibited 95% or more.) | Inhibition activity (inhibition ring mm) C. albicans ATCC 64548 GYF ([3]; 100 μg/8 mm disk): 16 mm | Transparency of the inhibition ring C. albicans ATCC 64548 GYF ([3]; 100 μg/8 mm disk): B (Growth of test organism was inhibited 75% of more and 95% or less.) | Inhibition activity (inhibition ring mm) C. albicans ATCC 64548 GYM ([3]; 100 μg/8 mm disk): 15 mm | Transparency of the inhibition ring C. albicans ATCC 64548 GYM ([3]; 100 μg/8 mm disk): A (Growth of test organism was inhibited 95% or more.)
